ChEMBL document CHEMBL1122129, “Estrogenic and antiestrogenic activity of monophenolic analogues of tamoxifen, (Z)-2-[p-(1,2-diphenyl-1-butenyl)phenoxy]-N, N-dimethylethylamine” (J Med Chem, 1982)

Key:
[1] = target: T1, Estrogen receptor (Rattus norvegicus) (UniProt P06211+Q62986); settings: Uterus
Description: Uterotrophic effect in rats at 50 ug/animal/day hydroxytamoxifen

[2] = target: T1, Estrogen receptor (Rattus norvegicus)
Description: Anti-uterotrophic effect in rats at 50 ug/animal/day in the presence of 0.5 ug estradiol benzoate

| Compound | Uterotropic effect [1] | Antiuterotropic effect [2] |
| --- | --- | --- |
| CC/C(=C(/c1ccc(OCCN(C)C)cc1)c1cccc(O)c1)c1ccccc1 | 6.7 | 16.7 |
| CC/C(=C(\c1ccccc1)c1ccc(OCCN(C)C)cc1)c1cccc(O)c1 | 10.1 | 15.7 |
| CC/C(=C(/c1ccccc1)c1ccc(OCCN(C)C)cc1)c1ccc(O)cc1 | 11 | 15.7 |
| CC/C(=C(/c1ccccc1)c1ccc(OCCN(C)C)cc1)c1cccc(O)c1 | 5.7 | 19.7 |
| C[C@]12CC[C@@H]3c4ccc(OC(=O)c5ccccc5)cc4CC[C@H]3[C@@H]1CC[C@@H]2O | 24 | 21.6 |
